For assay [1], the system named is soleus muscle. The assay can be described thus: Total glycogen content in isolated incubated soleus muscle. It counts as cell-based, rat. The settings on record: for total glycogen content: 10 nM peptide, 2 h; for EC50: isolated rat soleus muscle. On the procedure:
Soleus muscle preparation. All experiments were performed according to protocols approved by the Institutional Animal Ethics Committee. 5-6 week-old male Wistar rats (160 g) were kept on a 12:12-h light/dark cycle, and fed and watered ad libitum. Animals were anaesthetised with 50 mg/kg Nembutal (pentobarbitone sodium), then sacrificed by cervical dislocation. Soleus muscles were dissected under oxygenated KHB (118 mM NaCl, 4.75 mM KCl, 1.2 mM MgSO4, 24.8 mM NaHCO3, 1.2 mM KH2PO4, 2.54 mM CaCl2, 10 mM glucose, pH 7.4) and teased into halves, then incubated as described below.
Total glycogen content was measured in muscle strips by lyophilization followed by hydrolysis of glycogen to D-glucose with amyloglucosidase (Sigma) 20 U/100 ml in 0.2 M sodium acetate/acetic acid buffer, pH 4.8, and expressed as μmol ‘glucosyl’ units/g dry muscle weight. Free glucose in supernatant solutions was measured with a glucose/lactate analyzer (YSI 2300STAT, Yellow Springs Corporation) using D-glucose oxidase immobilized enzyme chemistry.
Data analysis. One way ANOVA, Dunnett's Multiple Comparisons Test, and unpaired Student's t-tests were used to calculate the statistical significance of differences, as appropriate. Dose-response curves were fitted to a sigmoidal dose-response algorithm, as follows: Y=minimum+(maximum−minimum)/([…] log ^(EC50^−X), for 2-DOG-uptake; and by a four parameter logistic model, Y=minimum+(maximum−minimum)/(1+10 log ^(EC50^−X)Hill-Coefficient) for total glycogen and [^14C]glucose incorporation. Calculations were performed using Prism v2.0 (GraphPad Software, San Diego, Calif.) to derive values for half-maximal effective concentration (EC50). Displacement curves derived for competition of bound radioligand with cold ligand in transfected cells were calculated according to a one site competition fit using Prism v2.0.

A further assay concerns the target T1, ramp 1/C1ins− receptor (Mus musculus, UniProt Q60755+Q9WTJ5).
T1 construct: expressed in transfected cells; host or cells: L6 myoblasts (ATCC), transient co-transfection of pcDNA3.1 plasmids
T1 sequence (Q60755 42-496 isoform Q60755-2 limits assumed): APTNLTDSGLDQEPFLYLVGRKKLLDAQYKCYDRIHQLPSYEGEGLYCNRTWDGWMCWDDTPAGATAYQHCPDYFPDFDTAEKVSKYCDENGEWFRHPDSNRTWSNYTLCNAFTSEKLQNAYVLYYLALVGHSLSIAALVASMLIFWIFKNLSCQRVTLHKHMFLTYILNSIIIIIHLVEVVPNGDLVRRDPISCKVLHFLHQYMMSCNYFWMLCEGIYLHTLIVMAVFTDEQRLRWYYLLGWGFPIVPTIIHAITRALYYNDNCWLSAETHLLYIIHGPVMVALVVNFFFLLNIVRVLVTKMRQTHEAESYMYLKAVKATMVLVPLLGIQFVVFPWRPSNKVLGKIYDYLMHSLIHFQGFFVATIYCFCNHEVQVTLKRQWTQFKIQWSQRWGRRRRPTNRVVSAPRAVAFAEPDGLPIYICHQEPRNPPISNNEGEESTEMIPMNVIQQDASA
T1 sequence (Q9WTJ5 27-148 partner): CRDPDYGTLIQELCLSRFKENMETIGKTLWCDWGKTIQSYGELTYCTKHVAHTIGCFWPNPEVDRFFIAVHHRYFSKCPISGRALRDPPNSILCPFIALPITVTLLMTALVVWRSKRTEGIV
The assay can be described thus: cAMP production in L6 myoblasts co-transfected with ramp 1 and C1ins−. Format: cell-based, murine. The settings on record: 15 min, FIG. 10. The procedure: Transfection of L6 myoblasts and cos-7 cells, and analysis of radioligand binding. L6 myoblasts and cos-7 cells were obtained from ATCC. Both cell lines were cultered in Dulbecco's modified Eagle's medium (DMEM; Gibco/BRL, high glucose) supplemented with 10% fetal calf serum (Gibco/BRL, Gaithersburg, Md.), L-glutamine (2 mM), penicillin (100 U/ml; Sigma), streptomycin ([…]; Sigma), saline (0.85%), under 5% CO2/95% air at 37° C. The day before transfection, cells were trypsinised and seeded into six-well plates at a density of 2.9×10^5 cells/well in the same medium. For transfection, cells were incubated with a mixture comprising 1 μg each of Qiagen-purified (Qiagen, Valencia, Calif.) plasmids containing C1ins− with either ramp 1 or ramp 3, and Fugene reagent (6 μl; Boehringer Mannheim) in Opti-Mem I medium (Gibco/BRL). The complex was added with serum to cells, which were incubated for a further 48 h.
Determination of cAMP in cultured cells and soleus muscle strips. cAMP concentration was measured in cells seeded in six-well plates and transfected as described. Following aspiration, cells were incubated for 15 min at room temperature in the presence of stated concentrations of ligands in binding buffer. Isobutylmethylxanthine (Sigma) was added to a final concentration of 0.5 mM together with stated concentrations of peptides, and the reaction terminated by aspiration. Cells were washed with 0.5 ml ice-cold TE buffer (10 mM Tris/HCl, 1 mM EDTA, pH 7.6) and rapidly transferred to eppendorf tubes in 1 ml of the same buffer, then boiled for 5 min. Following centrifugation at 12,000 g for 5 min at 4° C., then cooling on ice, duplicate 50 μl aliquots were analyzed for cAMP using an assay system based on competitive binding (Arnersham Pharmacia) according to the manufacturer's instructions.

For assay [2], the system named is soleus muscle. The experiment in a line: cAMP content of isolated soleus muscle from normal fed rats. It counts as cell-based, rat.
[3] abbreviates: absence of insulin, basal 90.8±3.7.
[4] abbreviates: insulin 23.7 nM, insulin alone 138±4.8.

As to rat CGRP-1, the values for the total glycogen content in the assay on soleus muscle [1] (setting [3]) and with soleus muscle [1] (setting [4]) were 71.4±7.7 μmol/g dry-wt muscle/h and 113±6.9 μmol/g dry-wt muscle/h, respectively. The EC50 in the assay with soleus muscle [1] (absence of insulin) was 3.2 nM; with soleus muscle [1] (human insulin 23.7 nM), 4.3 nM. Besides, the “cAMP production in co-transfected myoblasts” value on ramp 1/C1ins− receptor is reported as “dose-dependent increases of cAMP production”. In the assay on soleus muscle [2] (CGRP at both 5 nM and 100 nM, absence or presence of insulin (23.7 nM)), the “muscle cAMP content” value is “significant increases in muscle cAMP content”. Besides, in the assay with soleus muscle [2] (normal fed, 100 nM CGRP or adrenaline, control 3.9±0.2), the “cAMP content, agonist alone” value was 6.9 ± 0.8 pmol/mg. The “cAMP increase with 1 pM CGRP” value in the assay with soleus muscle [2] (normal fed, 1 hr incubation) is on record as “No significant cAMP increase”.
Consider Rat amylin, for which the total glycogen content with soleus muscle [1] (setting [3]) turned out to be 65.6±9.1 μmol/g dry-wt muscle/h; in the assay on soleus muscle [1] (setting [4]) it was 86.7 μmol/g dry-wt muscle/h. Moreover, the EC50 in the assay with soleus muscle [1] (absence of insulin) was 8 nM; in the assay on soleus muscle [1] (human insulin 23.7 nM) it was 8.1 nM. For the same substance, the “cAMP production in co-transfected myoblasts” value on ramp 1/C1ins− receptor is on record as “dose-dependent increases of cAMP production”. Also, in the assay with soleus muscle [2] (10 nM or 100 nM amylin, absence or presence of insulin), the “maximal increase in cAMP content” value is listed as “about 2 fold”. Moreover, the “effect of picomolar concentrations on muscle cAMP levels” value with soleus muscle [2] (FIG. 13C) is given as “no effect”.

Values taken from patent US20040038861A1, “Methods and compositions for normalizing lipid levels in mammalian tissues” (priority 2001, published 2004).
